Data reported in patent US8653235B2, “Cyclic peptide compound or pharmacologically acceptable salt thereof and method for producing same” (Kwansei Gakuin Educational Foundation, priority 2010, dated 2014).
Ends that are not written are not given here.

How the values were obtained:
[1] = tested on: endogenous epimorphin in HaCaT cells; test: Reference Example 1: Western blotting of endogenous epimorphin in HaCaT cells; assay type: cell-based, human; conditions: 0.01 or 0.025 volume % oleic acid in DH10 medium, 3 days
Protocol: HaCaT cells were cultured in a 5 volume % carbon dioxide atmosphere at 37° C. for 3 days in DH10 medium (Experiment No. 1), in DH10 medium containing 0.01 volume % oleic acid (Experiment No. 2), or in DH10 medium containing 0.025 volume % oleic acid (Experiment No. 3). The cultured cells were isolated and the obtained cells were dissolved in a solubilizing reagent (composition: 2 volume % SDS, 10 volume % glycerol, 5 volume % 2-mercaptoethanol, 0.008 volume % bromophenol blue, and 0.65 M tris-HCl buffer (pH about 6.8)) to obtain a cell extract. Western blotting was performed using the obtained cell extract and an anti-epimorphin antibody (produced by R & D Systems), and the relationship between oleic acid and the level of expression of endogenous epimorphin in HaCaT cells was investigated. The relationship between oleic acid and the level of expression of β-actin in HaCaT cells was also investigated in the same manner as above except that an anti-β-actin antibody was used in place of the anti-epimorphin antibody.

[2] = tested on: secreted epimorphin in PT67-TE cell culture supernatant; test: Reference Example 2: secreted epimorphin in PT67-TE cell culture supernatant (Western blotting); assay type: cell-based; conditions: 0.01 or 0.025 volume % oleic acid in DH10 medium, 3 days
Protocol: (§1) The HaCaT-TE cells obtained in Production Example 1 or the PT67-TE cells obtained in Production Example 2 were cultured in DH10 medium (Experiment No. 4), in DH10 medium containing 0.01 volume % oleic acid (Experiment No. 5), or in DH10 medium containing 0.025 volume % oleic acid (Experiment No. 6) in a 5 volume % carbon dioxide atmosphere at 37° C. for 3 days. The HaCaT-TE cells obtained in Production Example 1 or the PT67-TE cells obtained in Production Example 2 were irradiated with ultraviolet light B (UVB) at a dose of 10 mJ/cm^2, and then cultured in DH10 medium in a 5 volume % carbon dioxide atmosphere at 37° C. for 3 days (Experiment No. 7). The obtained culture was centrifuged (at 1000×g for 30 minutes) to obtain a culture supernatant. Using an anti-T7 tag antibody (produced by Novagen) and protein G Sepharose beads (produced by GE Healthcare), secreted epimorphin was collected from the obtained culture supernatant. The collected secreted epimorphin was subjected to Western blotting. Using an HRP-labeled anti-T7 tag antibody (produced by Novagen), the relationship between oleic acid and the amount of secreted epimorphin in each of the HaCaT-TE cell culture supernatant and the PT67-TE cell culture supernatant was investigated.

[3] = tested on: secreted epimorphin in HaCaT-TE cell culture supernatant; test: Reference Example 2: secreted epimorphin in HaCaT-TE cell culture supernatant (Western blotting); assay type: cell-based, human; conditions: 0.01 or 0.025 volume % oleic acid in DH10 medium, 3 days
Protocol: as §1

[4] = tested on: HaCaT-EPM cells; test: Test Example 1: effect on HaCaT-EPM cell growth (WST-1, Cell Counting Kit); assay type: cell-based, human; set-up: key to Score (growth recovery of HaCaT-EPM cells): ++: Compared to the case of using the control, significant growth recovery of HaCaT-EPM cells was detected (P≦0.01).; +: Compared to the case of using the control, significant growth recovery of HaCaT-EPM cells was detected (P≦0.05).; −: Significant growth recovery of HaCaT-EPM cells was not detected; conditions: peptide 0.001 mass % in DH10 medium
Protocol: The cyclic peptide compound obtained in Example 1 was added to purified water to a concentration of […] to obtain a sample. The obtained sample was then added to DH10 medium in such an amount as to achieve a concentration of the cyclic peptide compound obtained in Example 1 of 0.001 mass %. The HaCaT-EPM cells obtained in Production Example 3 were cultured in the obtained medium at 37° C. in a 5 volume % carbon dioxide atmosphere, and the cells were collected over time. After adding 110 μL of a mixture of solution B with reagent A (trade name: “WST-1, ” produced by Dojindo) (the reagent A/Solution B ratio by volume=10/1) provided with a cell counter kit (trade name: “Cell Counting Kit,” produced by Dojindo), the collected cells were incubated for 3 hours. The absorbance of the obtained mixture at 450 nm was measured using a spectrophotometer (trade name: “ARVOtmS X 1420 Multilabel Counter,” produced by Wallac), and the effect of the mixture on the HaCaT-EPM cell growth was investigated. As a control, the above procedure was repeated, except that purified water was used in place of the cyclic peptide compound obtained in Example 1, and the effect on the growth of HaCaT-EPM cells was investigated. […]

[5] = tested on: HaCaT cells; test: Test Example 2: lumen formation rate in HaCaT cell clusters in collagen gel with oleic acid; assay type: cell-based, human; conditions: oleic acid 0.05 volume %, peptide 0.0001 mass %, cultured 4 days
Protocol: In the following experiment, DH10 was used as a medium of Experimental No. 8. […] HaCaT cells were cultured in the DH10 medium at 37° C. in a 5 volume % carbon dioxide atmosphere. Next, the obtained HaCaT cells were suspended in 350 μL of DH10 medium containing 1000 U/mL DNase I (produced by Sigma Aldrich Co.). While rotating the obtained suspended solids in a 24-well dish (produced by Corning Inc., super-low adhesion surface) at 100 min^−1, gyratory culturing was performed for 24 hours at 37° C. in a 5 volume % carbon dioxide atmosphere to form a smooth, round cell aggregate. The formed cell aggregate was embedded in a high-density collagen gel prepared with a 0.5 mass % collagen solution (type IA) (produced by Koken Co., Ltd.). Next, the cell aggregate after embedding was cultured for 4 days in a 5 volume % carbon dioxide atmosphere at 37° C. in the medium of Experimental Nos. 8, 9, 10, or 11 to form a cell cluster. The morphology of the obtained cell cluster was observed by a phase-contrast microscope. In the cell cluster, the outermost layer cells maintain the undifferentiated state because they are in contact with collagen; however, in general, cells that are located inside the undifferentiated cells of the outermost layer promptly start differentiation, and undergo anoikis. […]

[6] = tested on: HaCaT-EPM cells; test: Test Example 3: lumen formation rate in HaCaT-EPM cell clusters in collagen gel; assay type: cell-based, human; conditions: peptide 0.0001 mass %, cultured 4 days
Protocol: In the following experiment, DH10 medium was used as the medium of Experimental No. 12. 1 μL of purified water was added to 1 mL of DH10 medium to obtain a medium (Experimental No. 13).
Except for using the HaCaT-EPM cells obtained in Production Example 3 in place of the HaCaT cells in Test Example 2, and the medium of Experimental No. 12, 13, 14, or 15 in place of the medium of Experimental No. 8, 9, 10, or 11 in Test Example 2, the same procedure as in Test Example 2 was performed to calculate a lumen formation rate.

[7] = tested on: differentiated cellular architecture containing HaCaT cells; test: Test Example 7: tissue morphology of differentiated cellular architecture containing HaCaT cells treated with oleic acid (parakeratosis); assay type: cell-based, human; conditions: 5 μL 0.5 volume % oleic acid-containing ethanol solution and 5 μL sample with peptide 0.001 mass %; one day
Protocol: In the following experiment, DH10 medium was used as a medium of Experimental No. 36. 1 μL of purified water was added to 1 mL of DH10 medium to obtain a sample (Experimental No. 37). Further, the cyclic peptide compound obtained in Example 1 was added to DH10 medium to a concentration of 0.001 mass % to obtain a sample (Experimental No. 38). Furthermore, the linear peptide obtained in Comparative Example 1 was added to DH10 medium to a concentration of 0.001 mass %, to obtain a sample (Experimental No. 39). MRC-5 cells, which are human fetal lung fibroblast cells, were cultured in 10 mL of α-MEM (produced by Gibco Laboratories containing 10 mass % heat inactivated FCS at 37° C. in a 5 volume % carbon dioxide atmosphere for 72 hours. A support (produced by BD Bioscience Co., Ltd.; trade name: cell culture insert) was provided in each well of a 24 well culture plate. In the support, the MRC-5 cells and a collagen gel mixed solution (collagen type I, produced by Nitta Gelatin, Inc.) were mixed. The obtained mixture was formed into a gel to obtain a cell-embedded gel (1.7×10^5/mL). 0.05 ml of a 1 mg/mL fibronectin aqueous solution (produced by BD Biosciences was added to the upper surface of the obtained cell-embedded gel, and the cell-embedded gel was allowed to stand for 1 hour at room temperature. […]

| Molecule | level of expression of endogenous epimorphin in HaCaT cells [1] | secreted epimorphin in PT67-TE cell culture supernatant [2] | secreted epimorphin in HaCaT-TE cell culture supernatant [3] | growth of HaCaT-EPM cells [4] | Score (growth recovery of HaCaT-EPM cells) ([4]; compared to purified water control, absorbance at 450 nm) | lumen formation rate in cell clusters [5] | lumen formation rate in cell clusters [6] | tissue morphology of the cell construct (nucleus; parakeratosis caused by oleic acid) [7] |
| --- | --- | --- | --- | --- | --- | --- | --- | --- |
| CCCCCCCC/C=C\CCCCCCCC(=O)O [oleic acid] | does not substantially affect | not detected | induces secretion of epimorphin |  |  |  |  |  |
| SIEQSCD [Comparative Example 1] |  |  |  | grew poorly | − | low lumen formation rate | low lumen formation rate | a nucleus could be observed |
